Tests used:
KATP channel = KATP channel (Mus musculus, UniProt B2RUS7); conditions: NKO gut segments, 1 hr; 10 nM glibenclamide or 0.5 mM diazoxide
Protocol: Adult intestine was stained in medium containing 0.12 mM Dithizone (DTZ) (10) and selected 5-inches-long DTZ+ fragments from NKO mice or anatomically matched control mice. The intestines were cut open and incubated in glucose-free DMEM supplemented with 10% FBS and 20 mM glucose for 30 min. At the end of the incubation, insulin and C peptide 2 content was measured in the medium by ELISA (Millipore). Collagenase-purified pancreatic islets from 14-week-old WT mice served as controls (5).
To determine whether Ggut Ins^+ cells are functionally competent to secrete insulin, we performed ex vivo assays of insulin secretion in response to glucose and KATP channel modulators, using DTZ staining to select gut segments enriched in Ins^+ cells from NKO mice and anatomically matched segments from control mice.
Adult intestine were strained in medium containing 0.12 mM Dithizone (DTZ) (Tuttle et al Nat Med, 2001) and selected 5-inches-long DTZ+ fragments from NKO mice or anatomically matched fragments from control WT mice. […] At the end of the incubation, we measured insulin and C-peptide 2 content in the medium by ELISA (Millipore). Collagenase-purified pancreatic islets from 14-week-old WT mice served as controls (Kitamura et al., MCB 2009). Experiments were carried out using adult intestines (n=4).

[1] = Insulin bioassay: acid-ethanol tissue extracts injected into newborn mice, blood glucose; assay type: in vivo, mouse
Protocol: Insulin bioassay. Acid-ethanol extracts were prepared from neonatal (P3) gut, liver, and pancreas (35). Tissue extract or recombinant human insulin (Humulin R, Eli Lilly) (10 U/ml in acid-ethanol) were mixed with either insulin neutralizing antibody (Thermo Scientific) or isotype-matched mouse IgG1 (Ebiosciences) for subcutaneous injections in 50 microliters volume. Glucose was measured immediately prior to and 5 minutes after injections.
To examine whether intestinal insulin secreted by Gut Ins+ cells is bioactive, acid-ethanol extracts from NKO gut were prepared, extracts were also prepared from gut, pancreas and liver of WT mice, and injected into newborn mice. Extracts from newborn NKO intestine lowered blood glucose by about 20%, similar to pancreatic extracts from age-matched control mice or recombinant human insulin (FIG. 3C). In contrast, extracts from control intestines or liver had no effect. The ability of NKO gut extracts (reflecting the presence of Gut Ins+ cells) to lower blood glucose was preempted by the addition of an insulin-neutralizing antibody, as was pancreatic extracts from control mice and recombinant insulin.

KATP channel, sequence (B2RUS7 1-1588): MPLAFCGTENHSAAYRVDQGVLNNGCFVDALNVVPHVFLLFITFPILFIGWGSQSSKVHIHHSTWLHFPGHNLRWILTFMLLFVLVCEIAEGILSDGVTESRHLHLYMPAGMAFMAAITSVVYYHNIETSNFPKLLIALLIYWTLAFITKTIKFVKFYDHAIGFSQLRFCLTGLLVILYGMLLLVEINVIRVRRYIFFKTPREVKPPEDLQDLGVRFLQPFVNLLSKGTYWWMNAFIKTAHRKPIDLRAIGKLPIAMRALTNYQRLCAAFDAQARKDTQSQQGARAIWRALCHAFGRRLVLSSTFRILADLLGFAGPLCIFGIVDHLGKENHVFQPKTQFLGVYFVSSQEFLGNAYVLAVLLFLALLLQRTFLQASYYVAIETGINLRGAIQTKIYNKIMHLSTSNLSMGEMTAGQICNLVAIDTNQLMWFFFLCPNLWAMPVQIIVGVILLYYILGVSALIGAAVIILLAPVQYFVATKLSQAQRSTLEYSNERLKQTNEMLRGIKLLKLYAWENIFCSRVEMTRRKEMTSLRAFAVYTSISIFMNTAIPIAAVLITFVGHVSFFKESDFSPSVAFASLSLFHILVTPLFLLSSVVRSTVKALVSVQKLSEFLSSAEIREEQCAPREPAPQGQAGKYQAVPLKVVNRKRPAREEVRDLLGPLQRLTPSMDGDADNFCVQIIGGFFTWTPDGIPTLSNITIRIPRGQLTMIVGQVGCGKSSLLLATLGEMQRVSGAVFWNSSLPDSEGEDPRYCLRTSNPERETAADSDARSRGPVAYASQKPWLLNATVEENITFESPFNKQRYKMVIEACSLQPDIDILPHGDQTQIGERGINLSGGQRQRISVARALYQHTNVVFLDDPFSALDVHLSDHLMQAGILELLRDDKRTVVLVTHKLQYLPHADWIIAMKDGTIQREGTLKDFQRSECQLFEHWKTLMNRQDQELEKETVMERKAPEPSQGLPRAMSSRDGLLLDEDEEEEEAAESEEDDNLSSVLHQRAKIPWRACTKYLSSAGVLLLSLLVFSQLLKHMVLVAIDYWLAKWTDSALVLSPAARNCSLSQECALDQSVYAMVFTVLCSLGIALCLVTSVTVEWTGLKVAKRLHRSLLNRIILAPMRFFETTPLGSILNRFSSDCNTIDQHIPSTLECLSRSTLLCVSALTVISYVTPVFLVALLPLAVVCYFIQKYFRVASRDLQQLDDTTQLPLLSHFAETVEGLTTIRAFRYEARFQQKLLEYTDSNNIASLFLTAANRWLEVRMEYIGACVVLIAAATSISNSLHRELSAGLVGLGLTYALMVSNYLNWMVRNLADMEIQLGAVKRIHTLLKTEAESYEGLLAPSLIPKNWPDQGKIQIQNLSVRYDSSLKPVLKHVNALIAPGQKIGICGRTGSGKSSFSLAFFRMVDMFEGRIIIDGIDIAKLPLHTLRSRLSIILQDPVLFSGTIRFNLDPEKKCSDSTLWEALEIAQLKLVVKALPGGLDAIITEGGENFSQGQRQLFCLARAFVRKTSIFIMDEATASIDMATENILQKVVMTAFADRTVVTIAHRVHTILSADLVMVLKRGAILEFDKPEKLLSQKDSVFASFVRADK
KATP channel, sequence (Q61743 whole entry partner): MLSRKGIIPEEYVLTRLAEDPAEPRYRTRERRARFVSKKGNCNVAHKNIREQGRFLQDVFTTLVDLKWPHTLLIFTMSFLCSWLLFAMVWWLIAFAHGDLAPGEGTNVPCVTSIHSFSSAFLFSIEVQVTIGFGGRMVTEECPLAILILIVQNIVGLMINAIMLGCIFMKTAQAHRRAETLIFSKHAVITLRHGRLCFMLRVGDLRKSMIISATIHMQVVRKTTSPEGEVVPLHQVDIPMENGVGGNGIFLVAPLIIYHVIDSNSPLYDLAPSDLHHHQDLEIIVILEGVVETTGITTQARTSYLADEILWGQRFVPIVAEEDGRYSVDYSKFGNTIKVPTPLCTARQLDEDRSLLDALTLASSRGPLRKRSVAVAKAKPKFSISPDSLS

effect on glucose-induced insulin release from NKO gut (KATP channel)	Compound	lowering of blood glucose (in words) ([1]; injected into newborn mice, compared with NKO intestine extract)	ability to lower blood glucose after addition of insulin-neutralizing antibody ([1]; sample mixed with insulin-neutralizing antibody)
blunted	CC1=NS(=O)(=O)c2cc(Cl)ccc2N1 [diazoxide]	–	–
–	recombinant human insulin: recombinant human insulin (Humulin R, Eli Lilly), 10 U/ml in acid-ethanol	similar	preempted

From patent publication US10544415B2, “Methods for producing enteroendocrine cells that make and secrete insulin” (The Trustees Of Columbia University In The City Of New York, priority 2010, dated 2020)
